US20240254186A1, “GLP-1 Receptor Agonists Having Improved Pharmacological and Drug Delivery Properties” (priority 2021, published 2024)
Like-named read-outs stand apart in the source and are kept apart here. Numbered stars: 1 amine (or outer) side, 2 acyl side, 3 side chain; on linkers, the order of the positions; unused ones are H or OH. Square brackets hold non-standard residues; d marks the D form. Side chains are listed from the residue outwards. Peptide text beside a SMILES is read from it. * marks the point of attachment. ξ: configuration not given here. Dap(Nα-HOOC(CH2)16CO)OH = O=C(O)CCCCCCCCCCCCCCCCC(=O)N[C@@H](CN*)C(=O)O; X6 = O=C([C@H](CCc1ccc(OC(=O)[*:3])cc1)N[*:1])[*:2]; Bip = N[C@@H](Cc1ccc(-c2ccccc2)cc1)C(=O)O; C18 diacid = O=C(O)CCCCCCCCCCCCCCCCC(=O)*; Hydrocinnamoyl(4-I) = O=C(CCc1ccc(I)cc1)*; X2 = O=C(CCc1ccc(I)cc1)N[C@@H](CN*)C(=O)O; αMePhe(2-F) = C[C@](N)(Cc1ccccc1F)C(=O)O; ξαMePhe(2-F) = CC(N)(Cc1ccccc1F)C(=O)O; hPhe = N[C@@H](CCc1ccccc1)C(=O)O; αMeF = C[C@](N)(Cc1ccccc1)C(=O)O; αMeP = C[C@@]1(C(=O)O)CCCN1; dDap = NC[C@@H](N)C(=O)O; ξαMeP = CC1(C(=O)O)CCCN1; ξαMeS = CC(N)(CO)C(=O)O; AEEA = NCCOCCOCC(=O)O; Aib = CC(C)(N)C(=O)O

Molecular target: T1, hGLP1 receptor (Homo sapiens, UniProt P43220)
T1 construct: expressed in transfected cells; host or cells: HEK (human embryonic kidney) cells co-expressing hGLP1 receptor and a CRE-Luciferase construct
Test: cAMP HTRF agonist assay in HEK cells co-expressing the hGLP1 receptor and CRE-Luciferase construct
Format: cell-based
Conditions: for potency compared with the parent peptide analog (1-2), in words: replacement of Aib2, versus parent 1-2; for potency relative to the parent peptide (1-4), fold less potent: versus parent 1-4
Description: Human embryonic kidney cells (HEK) co-expressing the hGLP1 receptor and CRE-Luciferase construct were used to determine agonist potency in this assay. The cells were thawed briefly at 37° C., transferred to a sterile tube and re-suspended in complete media at 37° C. Cells were centrifuged at 1000 rpm for 5 minutes and cells collected; cells were re-suspended in assay buffer consisting of DPBS (GIBCO) with 500 μM of the phosphodiesterase inhibitor IBMX. […] The optimal cell density was determined to be 1000 cells/well; cells were added to wells in 384-well plates containing appropriate pre-prepared dilutions of compounds (test peptides or reference compound exendin-4), sealed and incubated with CO2 for 30 min. Test peptide solutions were diluted from 10 mM stock solutions; for most peptides an initial run was performed in duplicate from a maximal concentration of 1.0 μM, with 11 concentrations tested for each peptide using serial 1:3 dilution from this maximal concentration. […] The agonist assay was a homogeneous time-resolved fluorescence (HTRF) assay (Cisbio).
Following incubation of the cells for 30 minutes with test or reference peptides, 5 μL of the cAMP acceptor cAMP-d2, prepared previously as a working solution from frozen stock (1:20 dilution), was added to each well of the assay plate, along with 5 μL of anti-cAMP antibody-cryptate working solution (diluted 1:20 from frozen stock). The wells were incubated for 1 hour at room temperature, and fluorescence was then read at 665 and 615 nm with an Envision reader with TRF laser. Data were saved and analyzed using Prism software (GraphPad). Concentration-response analysis was performed using 4-parameter logistic fits of the resulting data, and EC50 values obtained for each test and reference compound.

[1] = read-out: cAMP EC50, nM (0.1% albumin), Table 6, C-terminal PK-modifier conjugates, 0.1% albumin

T1 sequence (P43220 24-463): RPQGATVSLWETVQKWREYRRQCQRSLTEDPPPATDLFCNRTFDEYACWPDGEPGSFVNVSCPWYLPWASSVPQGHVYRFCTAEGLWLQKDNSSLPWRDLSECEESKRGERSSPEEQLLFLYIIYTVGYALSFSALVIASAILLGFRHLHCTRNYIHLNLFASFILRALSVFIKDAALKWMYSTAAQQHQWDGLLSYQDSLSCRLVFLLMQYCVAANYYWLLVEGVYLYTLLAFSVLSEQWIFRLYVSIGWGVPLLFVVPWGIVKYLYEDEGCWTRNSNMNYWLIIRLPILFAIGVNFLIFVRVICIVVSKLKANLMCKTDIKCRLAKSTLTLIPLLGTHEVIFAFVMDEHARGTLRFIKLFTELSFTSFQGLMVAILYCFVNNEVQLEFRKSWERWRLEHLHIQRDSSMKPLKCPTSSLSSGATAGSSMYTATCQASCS

C[C@@H](O)[C@H](NC(=O)CNC(=O)[C@H](CCC(=O)O)NC(=O)C(C)(C)NC(=O)[C@@H](N)Cc1c[nH]cn1)C(=O)N[C@@](C)(Cc1ccccc1)C(=O)N[C@H](C(=O)N[C@@H](CO)C(=O)N[C@@H](CC(=O)O)C(=O)N[C@@H](Cc1ccc(-c2ccccc2)cc1)C(=O)N[C@@H](Cc1ccc(-c2ccccc2)cc1)C(N)=O)[C@@H](C)O [3-16, H2N-His-Aib-Glu-Gly-Thr-α-MePhe-Thr-Ser-Asp-Bip-Bip-C(O)NH2] (H-H[Aib]EGT[αMeF]TSD[Bip][Bip]-NH2)
EC50 (cAMP EC50, nM (0.1% albumin), Table 1, Phe6 modifications, 0.1% albumin): 0.32 nM

C[C@@H](O)[C@H](NC(=O)CNC(=O)[C@H](CCC(=O)O)NC(=O)C(C)(C)NC(=O)[C@@H](N)Cc1c[nH]cn1)C(=O)N[C@@](C)(Cc1ccccc1)C(=O)N[C@H](C(=O)N[C@@H](CO)C(=O)N[C@@H](CC(=O)O)C(=O)N[C@@H](Cc1ccc(-c2ccccc2)cc1)C(=O)N[C@@H](Cc1ccc(-c2ccccc2)cc1)C(N)=O)[C@@H](C)O [3-17, H2N-His-Aib-Glu-Gly-Thr-α-MePhe-Thr-Ser-Asp-Bip-Bip-C(O)NH2] (H-H[Aib]EGT[αMeF]TSD[Bip][Bip]-NH2)
EC50 (Table 1, cell annotated (0% albumin), read-out: cAMP EC50): 0.08 nM

CC(C)[C@H](NC(=O)[C@@H](N)Cc1c[nH]cn1)C(=O)N[C@@H](CCC(=O)O)C(=O)NCC(=O)N[C@H](C(=O)N[C@@](C)(Cc1ccccc1F)C(=O)N[C@H](C(=O)N[C@@H](CO)C(=O)N[C@@H](CC(=O)O)C(=O)N[C@@H](Cc1ccc(-c2ccccc2)cc1)C(=O)N[C@@H](Cc1ccc(-c2ccccc2)cc1)C(N)=O)[C@@H](C)O)[C@@H](C)O [3-39, H2N-His-Val-Glu-Gly-Thr-α-MePhe(2-F)-Thr-Ser-Asp-Bip-Bip-C(O)NH2] (H-HVEGT[αMePhe(2-F)]TSD[Bip][Bip]-NH2)
potency compared with the parent peptide analog (1-2), in words: slightly less potency

C[C@@H](O)[C@H](NC(=O)CNC(=O)[C@H](CCC(=O)O)NC(=O)[C@]1(C)CCCN1C(=O)[C@@H](N)Cc1c[nH]cn1)C(=O)N[C@@](C)(Cc1ccccc1F)C(=O)N[C@H](C(=O)N[C@@H](CO)C(=O)N[C@@H](CC(=O)O)C(=O)N[C@@H](Cc1ccc(-c2ccccc2)cc1)C(=O)N[C@@H](Cc1ccc(-c2ccccc2)cc1)C(N)=O)[C@@H](C)O [3-40, H2N-His-α-MePro-Glu-Gly-Thr-α-MePhe(2-F)-Thr-Ser-Asp-Bip-Bip-C(O)NH2] (H-H[αMeP]EGT[αMePhe(2-F)]TSD[Bip][Bip]-NH2)
potency compared with the parent peptide analog (1-2), in words: significantly greater potency

C[C@@H](O)[C@H](NC(=O)CNC(=O)[C@H](CCC(=O)O)NC(=O)C1(C)CCCN1C(=O)[C@@H](N)Cc1c[nH]cn1)C(=O)NC(C)(Cc1ccccc1F)C(=O)NC(C)(CO)C(=O)N[C@@H](CO)C(=O)N[C@@H](CC(=O)O)C(=O)N[C@@H](Cc1ccc(-c2ccccc2)cc1)C(=O)N[C@@H](Cc1ccc(-c2ccccc2)cc1)C(N)=O (some centres unmarked) [3-59] (H-H[ξαMeP]EGT[ξαMePhe(2-F)][ξαMeS]SD[Bip][Bip]-NH2)
EC50 (cAMP EC50, nM (0.1% albumin), Table 4, N-terminal modifications, 0.1% albumin): 20.9 nM

C[C@@H](O)[C@H](NC(=O)CNC(=O)[C@H](CCC(=O)O)NC(=O)C(C)(C)NC(=O)[C@@H](N)Cc1c[nH]cn1)C(=O)N[C@@](C)(Cc1ccccc1F)C(=O)N[C@H](C(=O)N[C@@H](CO)C(=O)N[C@@H](CC(=O)O)C(=O)N[C@@H](Cc1ccc(-c2ccccc2)cc1)C(=O)N[C@@H](CCc1ccccc1)C(=O)O)[C@@H](C)O [4-1, H2N-His-Aib-Glu-Gly-Thr-α-MePhe(2-F)-Thr-Ser-Asp-Bip-Hph-C(O)OH] (H-H[Aib]EGT[αMePhe(2-F)]TSD[Bip][hPhe]-OH)
potency relative to the parent peptide (1-4), fold less potent: about 30 fold

C[C@@H](O)[C@H](NC(=O)CNC(=O)[C@H](CCC(=O)O)NC(=O)C(C)(C)NC(=O)[C@@H](N)Cc1c[nH]cn1)C(=O)N[C@@](C)(Cc1ccccc1F)C(=O)N[C@H](C(=O)N[C@@H](CO)C(=O)N[C@@H](CC(=O)O)C(=O)N[C@@H](Cc1ccc(-c2ccccc2)cc1)C(=O)N[C@@H](CCc1ccccc1)C(=O)NCCOCCOCC(=O)NCCOCCOCC(=O)NC[C@H](NC(=O)CCCCCCCCCCCCCCCCC(=O)O)C(=O)O)[C@@H](C)O [4-36, H2N-His-Aib-Glu-Gly-Thr-α-MePhe(2-F)-Thr-Ser-Asp-Bip-Hph-C(O)NH-RY2] (H-H[Aib]EGT[αMePhe(2-F)]TSD[Bip][hPhe][AEEA][AEEA]-{Dap(Nα-HOOC(CH2)16CO)OH})
potency relative to the parent peptide (1-4), fold less potent: 15 fold

C[C@@H](O)[C@H](NC(=O)CNC(=O)[C@H](CCC(=O)O)NC(=O)C(C)(C)NC(=O)[C@@H](N)Cc1c[nH]cn1)C(=O)N[C@@](C)(Cc1ccccc1F)C(=O)N[C@H](C(=O)N[C@@H](CO)C(=O)N[C@@H](CC(=O)O)C(=O)N[C@@H](Cc1ccc(-c2ccccc2)cc1)C(=O)N[C@@H](CCc1ccccc1)C(=O)NCCOCCOCC(=O)NCCOCCOCC(=O)NCCOCCOCC(=O)NC[C@H](NC(=O)CCc1ccc(I)cc1)C(=O)O)[C@@H](C)O [4-37, H2N-His-Aib-Glu-Gly-Thr-α-MePhe(2-F)-Thr-Ser-Asp-Bip-Hph-C(O)NH-RY3] (H-H[Aib]EGT[αMePhe(2-F)]TSD[Bip][hPhe][AEEA][AEEA][AEEA]-X2)
EC50 [1]: 4.08 nM
potency relative to the parent peptide (1-4), fold less potent: equipotency

C[C@@H](O)[C@H](NC(=O)CNC(=O)[C@H](CCC(=O)O)NC(=O)C(C)(C)NC(=O)[C@@H](N)Cc1c[nH]cn1)C(=O)N[C@@](C)(Cc1ccccc1F)C(=O)N[C@H](C(=O)N[C@@H](CO)C(=O)N[C@@H](CC(=O)O)C(=O)N[C@@H](Cc1ccc(-c2ccccc2)cc1)C(=O)N[C@@H](CCc1ccc(OC(=O)NCCOCCOCC(=O)NCCOCCOCC(N)=O)cc1)C(N)=O)[C@@H](C)O [4-38, H2N-His-Aib-Glu-Gly-Thr-α-MePhe(2-F)-Thr-Ser-Asp-Bip-Hph(4-OR4)-C(O)NH2] (H-H[Aib]EGT[αMePhe(2-F)]TSD[Bip][X6]([AEEA-AEEA-NH2])-NH2)
EC50 [1]: 320 nM

C[C@@H](O)[C@H](NC(=O)CNC(=O)[C@H](CCC(=O)O)NC(=O)C(C)(C)NC(=O)[C@@H](N)Cc1c[nH]cn1)C(=O)N[C@@](C)(Cc1ccccc1F)C(=O)N[C@H](C(=O)N[C@@H](CO)C(=O)N[C@@H](CC(=O)O)C(=O)N[C@@H](Cc1ccc(-c2ccccc2)cc1)C(=O)N[C@@H](CCc1ccc(OC(=O)NCCOCCOCC(=O)NCCOCCOCC(=O)NC[C@H](NC(=O)CCCCCCCCCCCCCCCCC(=O)O)C(=O)O)cc1)C(N)=O)[C@@H](C)O [4-39, H2N-His-Aib-Glu-Gly-Thr-α-MePhe(2-F)-Thr-Ser-Asp-Bip-Hph(4-OR5)-C(O)NH2] (H-H[Aib]EGT[αMePhe(2-F)]TSD[Bip][X6]([AEEA-AEEA-Dap(Nα-HOOC(CH2)16CO)OH])-NH2)
EC50 [1]: 232 nM

C[C@@H](O)[C@H](NC(=O)CNC(=O)[C@H](CCC(=O)O)NC(=O)C(C)(C)NC(=O)[C@@H](N)Cc1c[nH]cn1)C(=O)N[C@@](C)(Cc1ccccc1F)C(=O)N[C@H](C(=O)N[C@@H](CO)C(=O)N[C@@H](CC(=O)O)C(=O)N[C@@H](Cc1ccc(-c2ccccc2)cc1)C(=O)N[C@@H](CCc1ccc(OC(=O)NCCOCCOCC(=O)NCCOCCOCC(=O)NCCOCCOCC(=O)NC[C@H](NC(=O)CCc2ccc(I)cc2)C(=O)O)cc1)C(N)=O)[C@@H](C)O [4-40, H2N-His-Aib-Glu-Gly-Thr-α-MePhe(2-F)-Thr-Ser-Asp-Bip-Hph(4-OR6)-C(O)NH2] (H-H[Aib]EGT[αMePhe(2-F)]TSD[Bip][X6]([AEEA-AEEA-AEEA-X2])-NH2)
EC50 [1]: 49.7 nM

C[C@@H](O)[C@H](NC(=O)CNC(=O)[C@H](CCC(=O)O)NC(=O)C(C)(C)NC(=O)[C@@H](N)Cc1c[nH]cn1)C(=O)N[C@@](C)(Cc1ccccc1F)C(=O)N[C@H](C(=O)N[C@@H](CO)C(=O)N[C@@H](CC(=O)O)C(=O)N[C@@H](Cc1ccc(-c2ccccc2)cc1)C(=O)N[C@@H](Cc1ccc(-c2ccccc2)cc1)C(=O)NCCOCCOCC(=O)NCCOCCOCC(=O)N[C@H](CNC(=O)CCCCCCCCCCCCCCCCC(=O)O)C(N)=O)[C@@H](C)O [4-46, H2N-His-Aib-Glu-Gly-Thr-α-MePhe(2-F)-Thr-Ser-Asp-Bip-Bip-C(O)NH-RY8] (H-H[Aib]EGT[αMePhe(2-F)]TSD[Bip][Bip][AEEA][AEEA][dDap](C18 diacid)-NH2)
EC50 [1]: 5.4 nM

C[C@@H](O)[C@H](NC(=O)CNC(=O)[C@H](CCC(=O)O)NC(=O)C(C)(C)NC(=O)[C@@H](N)Cc1c[nH]cn1)C(=O)N[C@@](C)(Cc1ccccc1F)C(=O)N[C@H](C(=O)N[C@@H](CO)C(=O)N[C@@H](CC(=O)O)C(=O)N[C@@H](Cc1ccc(-c2ccccc2)cc1)C(=O)N[C@@H](Cc1ccc(-c2ccccc2)cc1)C(=O)NCCOCCOCC(=O)NCCOCCOCC(=O)NCCOCCOCC(=O)N[C@H](CNC(=O)CCc1ccc(I)cc1)C(N)=O)[C@@H](C)O [4-47, H2N-His-Aib-Glu-Gly-Thr-α-MePhe(2-F)-Thr-Ser-Asp-Bip-Bip-C(O)NH-RY9] (H-H[Aib]EGT[αMePhe(2-F)]TSD[Bip][Bip][AEEA][AEEA][AEEA][dDap](Hydrocinnamoyl(4-I))-NH2)
EC50 [1]: 0.6 nM
